From article PMC8072580, “Predicting Pharmacokinetic Properties of Potential Anticancer Agents via Their Chromatographic Behavior on Different Reversed Phase Materials” (International Journal of Molecular Sciences, 2021)
Where two headings read alike, the source gives them in different places.

Key:
[1] = Micellar liquid chromatography (MLC), ODS-2 column, Brij 35 effluent: chromatographic lipophilicity; format: physicochemical; conditions: pH 7.4, ODS-2 column, 25 °C
Text: There are several theories that describe the effect of the concentration of the surfactant in the effluent on the retention of the solute in MLC [23]. The following Foley’s equation is best known in lipophilicity studies:(2) 1/k=1/km+KAM/km[M] where [M] is the total concentration of the surfactant in the mobile phase minus CMC; KAM is the constant that describes solute-micelle binding; and km is the solute retention parameter at the micellar concentration of zero, i.e., when the concentration of the surfactant monomer is equal to CMC. The KAM and km parameters can be evaluated from the slope and intercept of the experimental 1/k vs. [M] relationships.
Equation (2) describes a linear dependence between decreasing retention and increasing micelle concentration. This equation is valid for aqueous solutions of surfactant or mobile phases with the same concentrations of the organic modifier. The micellar retention parameter, log km, is considered analogous to the log kw parameter evaluated in RPLC. According to the information presented above, this parameter is considered to be a lipophilicity descriptor, and Equation (2) is a simple way to indirectly determine the lipophilic properties of compounds. It is postulated that retention in micellar chromatography depends on hydrophobic (lipophilic), electronic, and steric features of the compounds in a similar way as has been noted concerning pharmacokinetic phenomena. The additional similarity results from the fact that the phospholipids, cholesterol, fatty acids, and triglycerides included in the extracellular and intracellular fluids also form micelles with proteins.
(§1) In our investigations, the micellar retention factors were used to calculate the log km parameters using Equation (2) (Table 2). For all of the compounds 1-19, the relationships of 1/k vs. [M] were obtained with very good linearity, confirming that Foley’s equation correctly describes the effect of the concentration of the surfactant in the effluent on the retention of the solute. In our studies, the micellar log km parameters for three pharmacologically active sets of compounds 1-6, 7-14, and 15-19 and the log k factors for solutes 15-19 obtained on IAM and end-capped ODS stationary phases were determined experimentally. All these retention factors, together with the log kw values for compounds 1-14 obtained in our earlier investigations on IAM and end-capped ODS stationary phases, were used as lipophilicity descriptors in the QSARs methodology to predict the pharmacokinetic descriptors of the compounds that were tested.
(§2) Shimadzu Vp (Shimadzu, Izabelin, Polska) liquid chromatographic system was used in HPLC measurements. It was equipped with an LC 10AT pump, SPD 10A UV–Vis detector, SCL 10A system controller, CTO-10 AS chromatographic oven, and Rheodyne injector valve with a 20 μL loop. As the stationary phases, 3 different revered-phase materials were applied: Spherisorb ODS-2 column, 125 × 4 mm i.d., 5 μm (Merck, Lublin, Poland), Regis IAM.PC.DD2 column, 100 × 4.6 mm i.d., 10 μm (Morton Grove, Illinois, USA), and Purosphere RP-18e column, 125 × 4 mm i.d., 5 μm (Merck, Lublin, Poland).
In the MLC technique with an ODS-2 column, buffered Brij 35 mixtures (0.15; 0.125, 0.10, and 0.075 mol/L) with 7% (v/v) addition of isopropanol were used as mobile phases. The buffer was prepared from 0.01 mol/L solutions of Na2HPO4 and citric acid, and the pH 7.4 value was fixed before mixing with an organic modifier. The flow rate was 1 mL/min. Buffered acetonitrile mixtures were used as effluents with the IAM column. Acetonitrile concentration, expressed as a volume fraction, was changed in the range of 0.2–0.5, with the constant step of 0.1. The flow rate was 1.3 mL/min. Acetonitrile concentration was changed in the range of 0.3–0.6 with the RP-18e column, with the constant step of 0.1 and flow rate of 0.1 mL/min. As solutes tested there were used 19 newly designed structurally related compounds. […]

[2] = Immobilized artificial membrane (IAM.PC.DD2) chromatography: log kw,IAM; format: physicochemical; conditions: IAM.PC.DD2 column, buffered acetonitrile 0.2-0.5, 25 °C
Text: as §1, §2
(§3) In the MLC technique with an ODS-2 column, buffered Brij 35 mixtures (0.15; 0.125, 0.10, and 0.075 mol/L) with 7% (v/v) addition of isopropanol were used as mobile phases. The buffer was prepared from 0.01 mol/L solutions of Na2HPO4 and citric acid, and the pH 7.4 value was fixed before mixing with an organic modifier. The flow rate was 1 mL/min. Buffered acetonitrile mixtures were used as effluents with the IAM column. Acetonitrile concentration, expressed as a volume fraction, was changed in the range of 0.2–0.5, with the constant step of 0.1. The flow rate was 1.3 mL/min. Acetonitrile concentration was changed in the range of 0.3–0.6 with the RP-18e column, with the constant step of 0.1 and flow rate of 0.1 mL/min. As solutes tested there were used 19 newly designed structurally related compounds. Samples were dissolved in acetonitrile c.a. 0.005 mg/mL. The compounds were detected under UV light at λmax 254 nm. All measurements were carried out at a constant temperature (25 °C). The dead time values were measured from non-retained compound (e.g., sodium chloride) peaks. All reported k values are the average of at least 3 independent measurements.

[3] = End-capped ODS (RP-18e) column chromatography: log kw,ODS; format: physicochemical; conditions: acetonitrile 0.3-0.6, 25 °C
Text: as §1, §2, §3

[4] = parameters: method as in PMID 31864156; conditions: IAM.PC.DD2 column, buffered acetonitrile; cited from earlier work
[5] = parameters: method as in PMID 31864156; conditions: end-capped ODS column, aqueous acetonitrile; cited from earlier work
Danio rerio = system: Danio rerio; parameters: method as in PMID 33390035; conditions: cited from earlier work
human cancer cells = system: human cancer cells; parameters: method as in PMID 31864156, PMID 16545495, PMID 25528370; conditions: cited from earlier work
[6] = 0.075 M Brij 35, 7% isopropanol
[7] = 0.125 M Brij 35, 7% isopropanol

Compound | k (MLC retention factor) [1, 6] | k (MLC retention factor) ([1]; 0.1 M Brij 35, 7% isopropanol) | k (MLC retention factor) [1, 7] | k (MLC retention factor) ([1]; 0.15 M Brij 35, 7% isopropanol) | log kw,IAM [2] | log kw,ODS [3] | log kw,IAM [4] | log kw,ODS [5] | safety for early life stages of Danio rerio compared with pemetrexed (Danio rerio) | antiproliferative effects in cancer cells compared with normal cells (human cancer cells)
CCOC(=O)c1nnc2n(c1=O)CCN2c1ccccc1 [Compound 15] | 2.09 | 1.90 | 1.81 | 1.84 | 0.48 | 1.21 |  |  |  | 
O=c1c(C(F)(F)F)nnc2n1CCN2c1ccc(Cl)c(Cl)c1 [Compound 14] | 59.61 | 44.28 | 32.68 | 28.56 |  |  | 2.29 [19] | 2.96 [19] |  | 
O=c1c(C(F)(F)F)nnc2n1CCN2c1ccccc1 [Compound 7] | 14.11 | 12.22 | 10.72 | 10.02 |  |  | 0.94 [19] | 1.92 [19] | safer for the early life stages of Danio rerio than pemetrexed | 
O=c1c(C(F)(F)F)nnc2n1CCN2c1cccc(Cl)c1 [Compound 12] | 36.90 | 29.09 | 22.17 | 19.83 |  |  | 1.66 [19] | 2.43 [19] |  | 
Cc1ccc(N2CCn3c2nnc(C(C)C)c3=O)cc1 [Compound 2] | 25.51 | 21.45 | 18.25 | 17.34 |  |  | 1.05 [19] | 2.01 [19] |  | 
CC(C)c1nnc2n(c1=O)CCN2c1ccccc1Cl [Compound 3] | 8.98 | 8.18 | 7.46 | 7.20 |  |  | 0.65 [19] | 1.42 [19] |  | 
CC(C)c1nnc2n(c1=O)CCN2c1cccc(Cl)c1 [Compound 4] | 39.84 | 31.65 | 24.39 | 22.52 |  |  | 1.49 [19] | 2.38 [19] |  | 
CC(C)c1nnc2n(c1=O)CCN2c1ccc(Cl)cc1 [Compound 5] | 41.53 | 33.76 | 26.18 | 24.10 |  |  | 1.39 [19] | 2.32 [19] |  | 
CCOC(=O)c1nnc2n(c1=O)CCN2c1ccc(Cl)c(Cl)c1 [Compound 19] | 24.39 | 18.98 | 14.97 | 14.81 | 3.36 | 3.24 |  |  |  | clearly higher antiproliferative effects in cancer cells than in normal cells
O=c1c(C(F)(F)F)nnc2n1CCN2c1ccc(Cl)cc1 [Compound 13] | 41.71 | 32.28 | 25.32 | 22.45 |  |  | 1.58 [19] | 2.40 [19] |  | 
Cc1ccc(N2CCn3c2nnc(C(F)(F)F)c3=O)cc1 [Compound 9] | 25.67 | 21.44 | 17.64 | 16.14 |  |  | 1.25 [19] | 2.16 [19] |  | 
CC(C)c1nnc2n(c1=O)CCN2c1ccccc1 [Compound 1] | 13.73 | 12.03 | 10.47 | 10.53 |  |  | 0.76 [19] | 1.59 [19] |  | 
CCOC(=O)c1nnc2n(c1=O)CCN2c1ccc(C)cc1 [Compound 16] | 4.49 | 4.04 | 3.81 | 3.75 | 1.93 | 2.80 |  |  |  | 
COc1ccccc1N1CCn2c1nnc(C(F)(F)F)c2=O [Compound 10] | 5.89 | 5.40 | 5.04 | 4.79 |  |  | 0.67 [19] | 1.65 [19] |  | clearly higher antiproliferative effects in cancer cells than in normal cells
O=c1c(C(F)(F)F)nnc2n1CCN2c1ccccc1Cl [Compound 11] | 10.61 | 9.36 | 8.27 | 7.66 |  |  | 0.88 [19] | 1.86 [19] |  | clearly higher antiproliferative effects in cancer cells than in normal cells
CCOC(=O)c1nnc2n(c1=O)CCN2c1cccc(Cl)c1 [Compound 17] | 10.12 | 8.72 | 8.00 | 8.00 | 1.73 | 2.62 |  |  |  | clearly higher antiproliferative effects in cancer cells than in normal cells
CC(C)c1nnc2n(c1=O)CCN2c1ccc(Cl)c(Cl)c1 [Compound 6] | 60.81 | 46.76 | 34.01 | 29.82 |  |  | 1.67 [19] | 2.68 [19] |  | 
CCOC(=O)c1nnc2n(c1=O)CCN2c1ccc(Cl)cc1 [Compound 18] | 9.94 | 8.48 | 7.53 | 7.75 | 1.12 | 1.92 |  |  |  | 
